Earlier results on 2 compounds are cited in patent EP1219295A1, “Controlled release formulation of valproate” (Abbott Laboratories, priority 2000, dated 2002).

Where two headings read alike, the source gives them in different places.

The conditions of data set [1]: in vivo.

For the compound `CCCC(CCC)C(=O)O` [valproate], the “patients affected by GI irritation” value in data set [1] is “up to one third”.

Take `CCCC(CCC)C(=O)O` [valproic acid, 2-Propylpentanoic acid]: the half life entry (in adults) was “six and seventeen”; the half life result (in children) was “four and fourteen”.
